Test results published in patent publication US8258103B2, “Pesticidal composition” (Sumitomo Chemical Company, Limited, priority 2007, dated 2012).

Tests used:
Spodoptera litura [1] = assay: Test Example 2: cabbage leaf immersion test, insecticidal rate on fourth-instar larvae; type: in vivo; conditions: after 2 days
Procedure: (§1) The theoretical value of an insecticidal (ovicidal) rate obtained by using a mixture of 2 kinds of active ingredients was calculated by the following formula: E=X+Y−(X×Y/100), which conforms to the Colby's formula. X: Insecticidal rate (%) of the active ingredient A at M Ppm Y: Insecticidal rate (%) of the active ingredient B at N ppm E: Theoretical insecticidal rate (%) of combination use of the active ingredient A at M ppm and the active ingredient B at N ppm
(§2) When an actual insecticidal (ovicidal) rate exceeds the theoretical value, it is determined that the used two active ingredients produce a synergetic effect.
(§3) (1) The formulation A was diluted with water to prepare a water dilution having an active ingredient concentration shown in Table 2. To the water dilution, 1/5,000 volume of a spreading agent (Sindain, manufactured by Sumitomo Chemical Takeda Agro Co., Ltd.) was added to prepare a test solution containing the present compound 1.
as §3, with “The” for “(1) The”, “formulation B” for “formulation A”, “compound 2.” for “compound 1.”
(§4) A water dilution of the formulation A and a water dilution of the formulation B were mixed so that the respective active ingredients could reach concentrations shown in Table 2. To the mixture, 1/5,000 volume of a spreading agent (Sindain, manufactured by Sumitomo Chemical Takeda Agro Co., Ltd.) was added to prepare a test solution containing the present compound 1 and the present compound 2.
(§5) (2) A cabbage was planted in a pot and grown until the fourth leaf stage. The leaves of the cabbage were cut off one by one, and then immersed in the above-described test solution for 60 seconds. After air drying, the cabbage leaves were each placed in a cup with a filter paper spread on the bottom. Ten fourth-instar larvae of Spodoptera litura were released into each cup. […] An insecticidal rate was calculated and corrected according to the following formula. Insecticidal rate (%)=100×(Mt−Mc)/(100−Mc)
(§6) Mt: Worm death rate (%) in a section treated with a test compound
(§7) Mc: Worm death rate (%) in a section not treated with a test compound

Spodoptera litura [2] = assay: Test Example 1: cabbage leaf immersion test, insecticidal rate on fourth-instar larvae; type: in vivo; conditions: for Found value of insecticidal rate (%): after 2 days
Procedure: as §1, §2
(1) 12 parts of spinetoram as the present compound 1, 35 parts of a carrier on which a polyoxyethylene alkyl ether sulfate ammonium salt and white carbon in a weight ratio of 1:1 were adsorbed, and 53 parts of water were mixed, and finely milled by a wet milling method to obtain a spinetoram formulation (hereinafter, referred to as the formulation A).
(2) A flowable formulation containing 10 parts of pyridalyl, which is the present compound 2, as the active ingredient (trade name: PLEO flowable, manufactured by Sumitomo Chemical Co., Ltd.) (hereinafter, referred to as the formulation B) was used.
as §3, with “(3)” for “(1)”, “1.” for “2.”, “1. The formulation B was diluted with water to prepare a water dilution having an active ingredient concentration shown in Table 1. To the water dilution, 1/5,000 volume of a spreading agent (Sindain, manufactured by Sumitomo Chemical Takeda Agro Co., Ltd.) was added to prepare a test solution containing the present compound 2.” for “1.”
as §4, with “Table 1.” for “Table 2.”
as §5, with “(4)” for “(2)”, “formula.” for “formula. Insecticidal rate (%)=100×(Mt−Mc)/(100−Mc)”
Insecticidal rate (%)=100×(Mt−Mc)/(100−Mc)
as §6, §7

Row | Compound | Found value of insecticidal rate (%) (Spodoptera litura [1]; 0.25 ppm single ingredient) | Found value of insecticidal rate (%) (Spodoptera litura [1]; 2.5 ppm single ingredient) | Theoretical value of insecticidal rate (%) (Spodoptera litura [2]; 2.5 ppm single ingredient) | Found value of insecticidal rate (%) (Spodoptera litura [2]; 2.5 ppm single ingredient) | Theoretical value of insecticidal rate (%) (Spodoptera litura [2]; 0.73 ppm single ingredient) | Found value of insecticidal rate (%) (Spodoptera litura [2]; 0.73 ppm single ingredient) | Theoretical value of insecticidal rate (%) (Spodoptera litura [2]; 2.9 ppm single ingredient) | Found value of insecticidal rate (%) (Spodoptera litura [2]; 2.9 ppm single ingredient)
1 | FC(F)(F)c1ccc(OCCCOc2c(Cl)cc(OCC=C(Cl)Cl)cc2Cl)nc1 [Pyridalyl (present compound 2), 2,6-dichloro-4-(3,3-dichloroallyloxy)phenyl 3-[5-(trifluoromethyl)-2-pyridyloxy]propyl ether] | 0 | 16.7 | 0 | 0 | – | – | – | –
2 | spinetoram [Spinetoram (present compound 1)] | 0 | 0 | – | – | 0 | 0 | 0 | 0
